# Source: article PMC2680211 (Bioorganic & medicinal chemistry, 2008)
# Biological target: hKOPR (Homo sapiens, UniProt P41145)
# Type: biochemical
# Chain of hKOPR (P41145 whole entry): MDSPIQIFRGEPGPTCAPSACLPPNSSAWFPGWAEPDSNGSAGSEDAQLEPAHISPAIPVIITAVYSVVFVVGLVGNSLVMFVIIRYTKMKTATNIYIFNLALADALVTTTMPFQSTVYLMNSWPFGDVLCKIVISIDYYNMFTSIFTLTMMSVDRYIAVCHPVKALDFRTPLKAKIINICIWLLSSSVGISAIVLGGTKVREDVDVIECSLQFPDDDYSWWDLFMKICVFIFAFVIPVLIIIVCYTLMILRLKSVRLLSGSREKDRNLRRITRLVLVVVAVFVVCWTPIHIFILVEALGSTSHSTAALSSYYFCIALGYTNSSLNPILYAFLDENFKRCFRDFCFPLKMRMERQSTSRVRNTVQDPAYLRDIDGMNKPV
Compound,KOPR agonism in the [35S]GTPγS functional assay (in words),"KOPR antagonism: effect on U50,488-induced [35S]GTPγS binding","reduction of [35S]GTPγS binding induced by U50,488"
COC(=O)[C@@H]1C[C@H](OC(C)=O)C(=O)[C@H]2[C@@]1(C)CC[C@H]1C(=O)O[C@H](COC(C)=O)C[C@]21C [Compound 11],weak KOPR agonist,–,–
"COC(=O)[C@@H]1C[C@H](OC(C)=O)C(=O)[C@H]2[C@@]1(C)CC[C@H]1C(=O)O[C@H](c3ccoc3Br)C[C@]21C [Compound 2, 16-bromosalvinorin A]",highly potent KOPR agonist,–,–
COC(=O)[C@@H]1C[C@H](OC(C)=O)C(=O)[C@H]2[C@@]1(C)CC[C@H]1C(=O)O[C@H](C(=O)O)C[C@]21C [Compound 7],weak agonist,–,–
"COC(=O)[C@@H]1C[C@H](OC(C)=O)C(=O)[C@H]2[C@@]1(C)CC[C@H]1C(=O)O[C@@H](c3ccoc3)C[C@]21C [Compound 6, 12-epi-Salvinorin A]",partial agonist effects,"partially blocked the effect of U50,488",significantly reduced
